From ChEMBL document CHEMBL3227967, “Quantitative structure-activity relationships in 1-aryl-2-(alkylamino)ethanol antimalarials” (J Med Chem, 1979)

Test system: Plasmodium berghei
Experiment: Antimalarial activity against Plasmodium berghei
Type: functional

Point of comparison: `CC(C)(C)NCC(O)c1cc2ccccc2c2ccccc12` (stereo not drawn), “log(1/C)” value 2.09. Against it:
- OC(CC1CCCCN1)C1CC(c2ccccc2)=Nc2c(Cl)cc(Cl)cc21 (stereo not drawn) — higher, 2.71
- OC(CNC1CC1)c1cc(-c2ccc(Cl)c(Cl)c2)nc2c(Cl)cc(Cl)cc12 (stereo not drawn) — higher, 3.6
- CCCCCCCN(CCCCCCC)CC(O)c1cc(-c2ccc(Cl)c(Cl)c2)cc2cc(Cl)ccc12 (stereo not drawn) — higher, 2.6
- CCCCN(CCCC)CC(O)c1ccnc2cc(C(F)(F)F)ccc12 (stereo not drawn) — higher, 2.51
- CCCCN(CCCC)CC(O)c1cc(Oc2ccc(Cl)cc2)c(Br)c2cc(Cl)ccc12 (stereo not drawn) — higher, 2.62
- OC(CC1CCCCN1)c1cc2cc(C(F)(F)F)ccc2c2ccccc12 (stereo not drawn) — higher, 4.39
- CCCCN(CCCC)CC(O)c1cc2cc(Cl)ccc2c2c(Cl)cc(Cl)cc12 (stereo not drawn) — higher, 3.91
- CCCN(CCC)CC(O)c1cc2cc(C(F)(F)F)cc(C(F)(F)F)c2c2ccccc12 (stereo not drawn) — higher, 4.31
- OC(CC1CCCNC1)c1cc2ccc(C(F)(F)F)cc2c2cc(C(F)(F)F)ccc12 (stereo not drawn) — higher, 3.89
- CCCCN(CCCC)CC(O)c1cc2ccc(Cl)cc2c2cc(OC)ccc12 (stereo not drawn) — higher, 2.49
- CCCCN(CCCC)CC(O)c1cc(C(F)(F)c2ccccc2)nc2c(Cl)cc(Cl)cc12 (stereo not drawn) — higher, 2.61
- OC(CC1CCCCN1)c1cc2ccc(Br)cc2c2cc(Br)ccc12 (stereo not drawn) — higher, 3.31
- OC(CC1CCCCN1)c1cc(-c2ccccc2)nc2c(Cl)cccc12 (stereo not drawn) — higher, 2.69
- CCCCN(CCCC)CC(O)c1cc(-c2ccc(Cl)c(Cl)c2)nc(-c2ccc(Cl)c(Cl)c2)c1 (stereo not drawn) — higher, 2.63
- CCCCCCNCC(O)c1cc(-c2ccc(C(F)(F)F)cc2)nc(-c2ccc(C(F)(F)F)cc2)c1 (stereo not drawn) — higher, 3.96
- CCCCN(CCCC)CC(O)c1cccc2cc3c(Cl)cccc3cc12 (stereo not drawn) — within 0.2 log units, 2.1
- CCCCN(CCCC)CC(O)c1cccc2c1cc(Cl)c1ccccc12 (stereo not drawn) — within 0.2 log units, 2.26
- CCCCCN(CCCCC)CC(O)c1cc(-c2ccccc2)nc2ccccc12 (stereo not drawn) — higher, 2.57
- OC(CC1CCCCN1)c1cc(-c2ccc(C(F)(F)F)cc2)nc(-c2ccc(C(F)(F)F)cc2)c1 (stereo not drawn) — higher, 4.19
- CCCCN(CCCC)CC(O)c1cc2cc(Br)c(Br)cc2c2cc(Br)ccc12 (stereo not drawn) — higher, 3.97
- CCCCCCN(CCCCCC)CC(O)c1cc(-c2ccc(Cl)c(Cl)c2)nc2cc(OC)ccc12 (stereo not drawn) — higher, 3.1
- CCCCN(CCCC)CC(O)c1cc(-c2ccc(Cl)c(Cl)c2)cc2cc(Cl)ccc12 (stereo not drawn) — higher, 4.81
- CCCCN(CCCC)CCC(O)c1cc(-c2ccc(Cl)c(Cl)c2)nc2c(Cl)cc(Cl)cc12 (stereo not drawn) — higher, 4.67
- OC(CC1CCCCN1)c1cc(C(F)(F)F)nc2ccc(F)cc12 (stereo not drawn) — higher, 2.33
- CCCCN(CCCC)CC(O)c1cc(C(C)(C)C)nc2c1cc(C)c1ccccc12 (stereo not drawn) — higher, 2.32
- CCCCCCN(CCCCCC)CC(O)c1cc(-c2ccc(F)cc2)nc(-c2ccc(F)cc2)c1 (stereo not drawn) — higher, 2.58
- CCCCN(CCCC)CC(O)c1cc2c(Cl)cc(Cl)cc2c2sccc12 (stereo not drawn) — higher, 3.28
- CCCCN(CCCC)CC(O)c1cc(Oc2cc(Cl)cc(Cl)c2)cc2c(Cl)cc(Cl)cc12 (stereo not drawn) — higher, 2.9
- CCCCCCCN(CCCCCCC)CC(O)c1cc(Cl)cc2ccc(-c3ccc(Cl)cc3)nc12 (stereo not drawn) — higher, 2.34
- OC(CC1CCCCN1)c1cc2c(Cl)c(Cl)c(Cl)c(Cl)c2c2cc(C(F)(F)F)ccc12 (stereo not drawn) — higher, 4.75
- Cc1ccc(-c2cc(C(O)CC3CCCCN3)c3cc(C)cc(C)c3n2)cc1 (stereo not drawn) — higher, 3.11
- CCCN(CCC)CCC(O)c1cc2ccc(C(F)(F)F)cc2c2cc(C(F)(F)F)ccc12 (stereo not drawn) — higher, 4.23
- OC(CNC12CC3CC(CC(C3)C1)C2)c1cc(-c2ccc(Cl)cc2)nc2cc(Cl)ccc12 (stereo not drawn) — higher, 3.24
- CC(C)(C)NCC(O)c1cc(C(F)(F)F)nc2c(C(F)(F)F)cccc12 (stereo not drawn) — higher, 2.64
- OC(CNC1CCCCC1)c1cc(-c2ccc(C(F)(F)F)cc2)nc(-c2ccc(C(F)(F)F)cc2)c1 (stereo not drawn) — higher, 4.17
- CCCCN(CCCC)CC(O)c1cc(Oc2cccc(C(F)(F)F)c2)cc2c(Cl)cc(Cl)cc12 (stereo not drawn) — higher, 2.52
- CCCCCCN(CCCCCC)CC(O)c1cccc2c1ccc1ccccc12 (stereo not drawn) — within 0.2 log units, 2.03
- CCCCN(CCCC)CC(O)c1cc(OCC)nc2ccccc12 (stereo not drawn) — within 0.2 log units, 2.24
- CCCCCCN(CCCCCC)CC(O)c1cccc2c1cc(Cl)c1ccccc12 (stereo not drawn) — higher, 2.39
- CCCCN(CCCC)CC(O)c1cc(-c2ccc(Cl)cc2)nc(-c2ccc(Cl)c(Cl)c2)c1 (stereo not drawn) — higher, 3
- OC(CC1CCCCN1)c1cc2cccc(C(F)(F)F)c2c2ccccc12 (stereo not drawn) — higher, 3.62
- CC[C@H]1CN2CC[C@H]1C[C@H]2[C@H](O)c1ccnc2ccc(OC)cc12 [HYDROQUININE] — within 0.2 log units, 2.04
- CCCCN(CCCC)CC(O)c1cc(-c2ccc(Cl)c(Cl)c2)cc2cc(Cl)c(OC)cc12 (stereo not drawn) — higher, 3.06
- CCCCN(CCCC)CC(O)c1cc2cc(Cl)ccc2c2cc(Cl)ccc12 (stereo not drawn) — higher, 3.81
- COc1ccc(-c2cc(C(O)CC3CCCCN3)c3cccc(C)c3n2)cc1 (stereo not drawn) — higher, 3.18
- CCCCN(CCCC)CCC(O)c1cc2c(Cl)cc(Cl)cc2c2cc(C(F)(F)F)ccc12 (stereo not drawn) [HALOFANTRINE] — higher, 4.47
- CCCCN(CCCC)CC(O)c1cc(-c2ccc(Cl)cc2)nc(-c2ccc(C(F)(F)F)cc2)c1 (stereo not drawn) — higher, 3.43
- CCCCN(CCCC)CC(O)c1cc(C(=O)c2cccc(Cl)c2Cl)nc2c(C(F)(F)F)cc(Cl)cc12 (stereo not drawn) — higher, 4.52
- OC(CC1CCCCN1)c1cc2cc(Cl)ccc2c2c(Cl)cc(Cl)cc12 (stereo not drawn) — higher, 4.29
- CCCCN(CCCC)CC(O)c1cc(-c2ccc(Cl)cc2)nc2cc(Cl)c(OC)cc12 (stereo not drawn) — higher, 3.87
- CCN(CC)CC(O)c1ccnc2cc(Cl)ccc12 (stereo not drawn) — higher, 3.03
- CCCCN(CCCC)CC(O)c1cc(-c2ccc(Cl)cc2)nc2cc(I)ccc12 (stereo not drawn) — higher, 3.43
- CCCCN(CCCC)CC(O)c1cc(-c2ccccc2)nc2ccccc12 (stereo not drawn) — higher, 2.54
- CCCCN(CCCC)CC(O)c1cc2cc(Cl)c(Cl)cc2c2c(Cl)c(Cl)ccc12 (stereo not drawn) — higher, 4.18
- Cc1cccc2c(C(O)CC3CCCCN3)cc(-c3ccc(Cl)cc3)nc12 (stereo not drawn) — higher, 3.67
- CCN(CC)CC(O)c1cc(-c2ccc(Cl)cc2)nc(-c2ccc(Cl)cc2)c1 (stereo not drawn) — higher, 3.19
- OC(CC1CCCCN1)c1cc2c(Br)cc(Br)cc2c2cc(C(F)(F)F)ccc12 (stereo not drawn) — higher, 4.2
- CCCCCCCN(CCCCCCC)CC(O)c1cc2ccccc2c2cc(Cl)ccc12 (stereo not drawn) — higher, 2.59
- CCCCN(CCCC)CC(O)c1nc(-c2ccc(Cl)cc2)nc2ccccc12 (stereo not drawn) — higher, 2.85
- OC(CC1CCCCN1)c1cc2cc(Cl)cc(Cl)c2c2cc(C(F)(F)F)ccc12 (stereo not drawn) — higher, 4.43
- CCCCN(CCCC)CC(O)c1c(F)c(-c2ccc(Cl)cc2)nc2c(Cl)cc(Cl)cc12 (stereo not drawn) — higher, 4.22
- CCCCCCN(CCCCCC)CC(O)c1cccc2ccc3ccccc3c12 (stereo not drawn) — within 0.2 log units, 2.2
- CCCC(CCC)NCC(O)c1cc(-c2ccc(C(F)(F)F)cc2)nc(C(F)(F)F)c1 (stereo not drawn) — higher, 4.47
- CCCCCCC[N+]([O-])(CCCCCCC)CC(O)c1cc2ccccc2c2cc(Br)ccc12 (stereo not drawn) — higher, 3.43
- NC(=O)c1cc(C(O)CC2CCCCN2)c2cccc(C(F)(F)F)c2n1 (stereo not drawn) — higher, 2.42
- CCCCCCCCN(CCCCCCCC)CC(O)c1cc(-c2ccc(OC)c(OC)c2)nc2ccc(Cl)cc12 (stereo not drawn) — higher, 3.11
- CCCCCCCN(CCCCCCC)CC(O)c1cc2c(Cl)cccc2c2ccccc12 (stereo not drawn) — higher, 2.56
- CCCCN(CCCC)CC(O)c1cc2ccc(C(F)(F)F)cc2c2sccc12 (stereo not drawn) — higher, 2.98
- CN(Cc1ccccc1)CC(O)c1cc(-c2cccs2)nc2cccc(Br)c12 (stereo not drawn) — within 0.2 log units, 2.26
- CN(C)CC(O)c1cc(-c2ccc(Cl)cc2)nc(-c2ccc(Cl)cc2)c1 (stereo not drawn) — higher, 3.18
- CC(C)CN(C)CC(O)c1cc(-c2ccc(Cl)cc2)nc(-c2ccc(Cl)cc2)c1 (stereo not drawn) — higher, 3.29
- CCCCN(CCCC)CC(O)c1cc(-c2ccc(Cl)cc2)nc2cc(F)ccc12 (stereo not drawn) — higher, 3.62
- CCCCN(CCCC)CC(O)c1cc(-c2ccc(Br)cc2)nc(-c2ccc(Br)cc2)c1 (stereo not drawn) — higher, 3.31
- OC(CC1CCCCN1)c1cc2cc(C(F)(F)F)cc(C(F)(F)F)c2c2cc(C(F)(F)F)ccc12 (stereo not drawn) — higher, 4.47
- OC(C[N+]12CCC(CC1)CC2)c1cc2ccc(Cl)cc2c2cc(Cl)ccc12 (stereo not drawn) — higher, 2.98
- CCCCN(CCCC)CC(O)c1cc2ccsc2c2cc(Br)ccc12 (stereo not drawn) — higher, 3.37
- OC(CNC1CCCC1)c1cc(-c2ccc(Cl)cc2)nc2c(Cl)cc(Cl)cc12 (stereo not drawn) — higher, 3.53
- CCN(CC)CC(O)c1cc2cc(Cl)cc(Cl)c2nc1-c1ccc(Cl)cc1 (stereo not drawn) — higher, 2.47
- CCCCN(CCCC)CC(O)c1cc(-c2ccc(C(F)(F)F)cc2)nc(-c2ccc(Cl)c(Cl)c2)c1 (stereo not drawn) — higher, 3.16
- Cc1cc(C)c2cc(C(O)CC3CCCCN3)c3ccc(C(F)(F)F)cc3c2c1 (stereo not drawn) — higher, 3.25
- CCCCCCCN(CCCCCCC)CC(O)c1cc(Cl)cc2cc3ccccc3cc12 (stereo not drawn) — higher, 3.1
- OC(CC1CCCCN1)c1cc(C(F)(F)F)nc2c(C(F)(F)F)cccc12 (stereo not drawn) — higher, 4.41
- CCCCNCCC(O)c1c2ccccc2c(Cl)c2ccccc12 (stereo not drawn) — higher, 2.49
- OC(CC1CCCCN1)c1cc2cc(C(F)(F)F)ccc2c2ccc(Cl)cc12 (stereo not drawn) — higher, 4.19
- CS(=O)(=O)c1ccc2cc(C(O)CC3CCCCN3)c3ccc(C(F)(F)F)cc3c2c1 (stereo not drawn) — higher, 3.32
- CCCCN(CCCC)CC(O)c1cc(-c2ccc(Cl)cc2)cc2cc(Cl)ccc12 (stereo not drawn) — higher, 4.24
- Cc1cc(C)c2nc(Oc3ccc(Cl)cc3)cc(C(O)CC3CCCCN3)c2c1 (stereo not drawn) — higher, 2.72
- CCCCN(CCCC)CC(O)c1cc2sccc2c2cc(Cl)sc12 (stereo not drawn) — higher, 3.36
- CCCCN(CCCC)CC(O)c1cc(-c2ccc(F)cc2)nc2cc(F)ccc12 (stereo not drawn) — higher, 2.52
- CCCCN(CCCC)CC(O)c1cc(-c2ccc(Cl)cc2)nc2cc(Cl)ccc12 (stereo not drawn) — higher, 3.91
- CCCCN(C)CC(O)c1cc(-c2ccc(Cl)cc2)nc(-c2ccc(Cl)cc2)c1 (stereo not drawn) — higher, 3.59
- C=C[C@H]1CN2CC[C@H]1C[C@H]2[C@H](O)c1cc(-c2ccccc2)nc2ccc(OC)cc12 — higher, 2.72
- CCCCN(CCCC)CC(O)/C(=C/c1ccc(C(F)(F)F)cc1)c1ccc(C(F)(F)F)cc1 (stereo not drawn) — higher, 3.22
- CCCCN(CCCC)CC(O)c1cc(C(C)(C)C)nc2c1cc(Cl)c1ccccc12 (stereo not drawn) — higher, 2.98
- CCCCN(CCCC)CC(O)c1cc(Cl)cc2c1-c1ccc(Cl)cc1C2 (stereo not drawn) — higher, 3.97
- CCCCCCCN(CCCCCCC)CC(O)c1cc(-c2ccc(Cl)c(Cl)c2)cc2cc(Cl)c(OC)cc12 (stereo not drawn) — higher, 2.58
- CCCCCCN(CCCCCC)CC(O)c1cc(-c2ccc(OC)c(OC)c2)nc2ccc(Cl)cc12 (stereo not drawn) — higher, 3.32
